Test results taken from patent US20230203081A1, “LINCOSAMIDE ANTIBIOTICS AND USES THEREOF” (President and Fellows of Harvard College, priority 2020, published 2023).
Values after ≈ are worked out from the molar mass of the structure shown. Like-named read-outs stand apart in the source and are kept apart here.

How the values were obtained:
Type in all cases: cell-based
[1] = tested on: E. coli ΔTolC; assay: microbe, parasite or virus in culture; conditions: Escherichia coli
Protocol: (§1) Minimum inhibitory concentrations (MICs) were determined by broth microdilution method or agar dilution method following the Clinical and Laboratory Standards Institute guidelines. Standard bacterial strains were obtained from American Type Culture Collection (ATCC). Other bacterial strains were obtained from hospitals and commercial sources, so noted in Table 11. […] Specialized procedures were employed for streptococcal and anaerobic strains. All other bacterial strains were sub-cultured on blood agar plates (tryptic soy agar with 5% sheep blood, Hardy Diagnostics) and incubated overnight at 35° C. […] Suspensions were further diluted to obtain a final inoculum of 5×10^5 CFU/mL for broth microdilution experiments.

[2] = tested on: E. faecium Clinical VRE; assay: MIC (broth microdilution or agar dilution, CLSI); conditions: Enterococcus faecium; E. faecium Clinical VRE; read-out: MIC
Protocol: (§2) Minimum inhibitory concentrations (MICs) were determined by broth microdilution method or agar dilution method following the Clinical and Laboratory Standards Institute guidelines. Standard bacterial strains were obtained from American Type Culture Collection (ATCC). Other bacterial strains were obtained from hospitals and commercial sources, so noted in Table 11. Before the start of the MIC experiment, standard and test compound stock solutions were prepared in dimethyl sulfoxide (DMSO, Aldrich D2650) at a stock concentration of 5,120 μg/mL. The compound concentration range typically employed for each experiment was 128-0.06 μg/mL (2.5% final DMSO concentration). Clindamycin was used as a comparator in all experiments and each experiment was performed in triplicate. Specialized procedures were employed for streptococcal and anaerobic strains. All other bacterial strains were sub-cultured on blood agar plates (tryptic soy agar with 5% sheep blood, Hardy Diagnostics) and incubated overnight at 35° C. Organisms were suspended in cation-adjusted Mueller-Hinton broth (CaMHB, BD 212322) and optical density was adjusted to 0.5 McFarland standard. Suspensions were further diluted to obtain a final inoculum of 5×10^5 CFU/mL for broth microdilution experiments.

[3] = tested on: P. aeruginosa ATCC 27853; assay: MIC (broth microdilution or agar dilution, CLSI); conditions: Pseudomonas aeruginosa, ATCC27853; P. aeruginosa ATCC 27853; read-out: MIC
Protocol: as §2

[4] = tested on: S. aureus cErmA; assay: MIC (broth microdilution or agar dilution, CLSI); conditions: Staphylococcus aureus; S. aureus cErmA; read-out: MIC
Protocol: as §2

[5] = tested on: A. baumannii ATCC 19606; assay: MIC (broth microdilution or agar dilution, CLSI); conditions: Acinetobacter baumannii, ATCC19606; A. baumannii ATCC 19606; read-out: MIC
Protocol: as §1

[6] = tested on: E. coli ATCC 25922; assay: MIC (broth microdilution or agar dilution, CLSI); conditions: Escherichia coli, ATCC25922, read-out: MIC
Protocol: as §1

[7] = tested on: E. coli LptD; assay: MIC (broth microdilution or agar dilution, CLSI); conditions: Escherichia coli, read-out: MIC
Protocol: as §1

[8] = tested on: E. faecalis ATCC 29212; assay: MIC (broth microdilution or agar dilution, CLSI); conditions: Enterococcus faecalis, read-out: MIC
Protocol: as §1

[9] = tested on: K. oxytoca Clinical; assay: MIC (broth microdilution or agar dilution, CLSI); conditions: Klebsiella oxytoca, read-out: MIC
Protocol: as §1

[10] = tested on: S. aureus ATCC 29213; assay: MIC (broth microdilution or agar dilution, CLSI); conditions: Staphylococcus aureus, read-out: MIC
Protocol: as §1

[11] = tested on: S. pneumoniae ATCC 49619; assay: MIC (broth microdilution or agar dilution, CLSI); conditions: Streptococcus pneumoniae, read-out: MIC
Protocol: as §1

[12] = tested on: S. pyogenes ATCC 19615; assay: MIC (broth microdilution or agar dilution, CLSI); conditions: Streptococcus pyogenes, read-out: MIC
Protocol: as §1

[13] = tested on: broad panel of different clinical isolates; assay: microbe, parasite or virus in culture
Protocol: as §1

[14] = tested on: S. aureus MMX 3035 cErmA; assay: MIC (broth microdilution or agar dilution, CLSI); conditions: Staphylococcus aureus, MMX3035CERMA; S. aureus HAV#031, MMX 3035; cErmA; read-out: MIC
Protocol: as §1

[15] = ATCC29212, E. faecalis ATCC 29212
[16] = ATCC29213, S. aureus ATCC 29213
[17] = ATCC49619, S. pneumoniae ATCC 49619
[18] = ATCC19615, S. pyogenes ATCC 19615
[19] = Enterococcus faecalis, VRE, E. faecalis HAV#251, Clinical VRE
[20] = Klebsiella pneumoniae, K. pneumoniae HAV#041, Clinical, KPC
[21] = ATCC29212, E. faecalis HAV#005, ATCC 29212
[22] = ATCC29213, S. aureus HAV#001, ATCC 29213, MP-549
[23] = ATCC49619, S. pneumoniae HAV#003, ATCC 49619
[24] = ATCC19615, S. pyogenes HAV#004, ATCC 19615

Structure (SMILES)	MIC ([1]; E. coli ΔTolC)	MIC [2]	MIC [3]	MIC [4]	MIC [5]	MIC ([6]; E. coli ATCC 25922)	MIC ([7]; E. coli LptD)	MIC [8, 15]	MIC ([9]; K. oxytoca Clinical)	MIC [10, 16]	MIC [11, 17]	MIC [12, 18]	MIC ([1]; E. coli HAV#038, ΔTolC)	MIC [13, 19]	MIC [13, 20]	MIC ([6]; E. coli HAV#006, ATCC 25922)	MIC ([7]; E. coli HAV#040, LptD)	MIC [8, 21]	MIC ([9]; K. oxytoca HAV#450, Clinical)	MIC [10, 22]	further results
COCCC[C@@H]1CCO[C@@H]2[C@H](CN[C@@H]2C(=O)N[C@H]([C@H](C)Cl)[C@H]2OC(SC)[C@H](O)[C@H](O)C2O)C1 (stereo partly drawn) [FSA-10-10-022]	0.5 µg/mL (≈ 0.978 µM)	8 µg/mL (≈ 15.7 µM)	> 128 µg/mL	16 µg/mL (≈ 31.3 µM)	> 128 µg/mL	32 µg/mL (≈ 62.6 µM)	4 µg/mL (≈ 7.83 µM)	2 µg/mL (≈ 3.91 µM)	32 µg/mL (≈ 62.6 µM)	0.125 µg/mL (≈ 0.245 µM)	0.25 µg/mL (≈ 0.489 µM)	0.25 µg/mL (≈ 0.489 µM)									
CSC1O[C@H]([C@H](NC(=O)[C@H]2NC[C@@H]3C[C@H](CC4CC4)CCO[C@H]32)[C@H](C)Cl)C(O)[C@@H](O)[C@H]1O (stereo partly drawn) [FSA-10-10-001]	0.25 µg/mL (≈ 0.507 µM)	2 µg/mL (≈ 4.06 µM)	> 128 µg/mL	4 µg/mL (≈ 8.11 µM)	16 µg/mL (≈ 32.5 µM)	4 µg/mL (≈ 8.11 µM)	0.5 µg/mL (≈ 1.01 µM)	0.06 µg/mL (≈ 0.122 µM)	8 µg/mL (≈ 16.2 µM)	0.125 µg/mL (≈ 0.254 µM)	0.125 µg/mL (≈ 0.254 µM)	0.125 µg/mL (≈ 0.254 µM)									
O=C(N[C@H](CO)[C@H](O)c1ccc([N+](=O)[O-])cc1)C(Cl)Cl [Chloramphenicol]													8 µg/mL (≈ 24.8 µM)	4 µg/mL (≈ 12.4 µM)	> 128 µg/mL	8 µg/mL (≈ 24.8 µM)	4 µg/mL (≈ 12.4 µM)	8 µg/mL (≈ 24.8 µM)	8 µg/mL (≈ 24.8 µM)	8 µg/mL (≈ 24.8 µM)	MIC ([13]; Enterococcus faecium, VRE, E. faecium HAV#318, VanA): 8 µg/mL (≈ 24.8 µM); MIC ([13]; Staphylococcus aureus, S. aureus HAV#216, Clinical, cfr): > 128 µg/mL; MIC ([13]; Staphylococcus aureus, S. aureus HAV#217, cfr): > 128 µg/mL; MIC ([13]; Staphylococcus epidermidis, S. epidermidis HAV# 275 Clinical, cfr): > 128 µg/mL; MIC ([13]; Staphylococcus epidermidis, S. epidermidis HAV# 276, cfr): > 128 µg/mL; MIC [14]: 16 µg/mL (≈ 49.5 µM); MIC [11, 23]: 4 µg/mL (≈ 12.4 µM); MIC [12, 24]: 4 µg/mL (≈ 12.4 µM)
CSC1O[C@H]([C@H](NC(=O)[C@H]2NC[C@@H]3C[C@H](CCF)CCO[C@H]32)[C@H](C)Cl)C(O)[C@@H](O)[C@H]1O (stereo partly drawn) [FSA-10-09-099]	1 µg/mL (≈ 2.06 µM)	16 µg/mL (≈ 33 µM)	> 128 µg/mL	32 µg/mL (≈ 66 µM)	> 128 µg/mL	32 µg/mL (≈ 66 µM)	4 µg/mL (≈ 8.25 µM)	0.5 µg/mL (≈ 1.03 µM)	32 µg/mL (≈ 66 µM)	0.25 µg/mL (≈ 0.515 µM)	0.25 µg/mL (≈ 0.515 µM)	0.5 µg/mL (≈ 1.03 µM)									
CSC1O[C@H]([C@H](NC(=O)[C@H]2NC[C@@H]3C[C@H](C)CCO[C@H]32)[C@H](C)Cl)C(O)[C@@H](O)[C@H]1O (stereo partly drawn) [FSA-10-10-014]	8 µg/mL (≈ 17.7 µM)	64 µg/mL (≈ 141 µM)	> 128 µg/mL	64 µg/mL (≈ 141 µM)	> 128 µg/mL	64 µg/mL (≈ 141 µM)	8 µg/mL (≈ 17.7 µM)	16 µg/mL (≈ 35.3 µM)	128 µg/mL (≈ 283 µM)	1 µg/mL (≈ 2.21 µM)	2 µg/mL (≈ 4.42 µM)	1 µg/mL (≈ 2.21 µM)									
CS(=O)(=O)c1ccc([C@@H](O)[C@@H](CO)NC(=O)C(Cl)Cl)cc1 [Thiamphenicol]													16 µg/mL (≈ 44.9 µM)	8 µg/mL (≈ 22.5 µM)	> 64 µg/mL	64 µg/mL (≈ 180 µM)	32 µg/mL (≈ 89.8 µM)	16 µg/mL (≈ 44.9 µM)	64 µg/mL (≈ 180 µM)	32 µg/mL (≈ 89.8 µM)	MIC [14]: 32 µg/mL (≈ 89.8 µM); MIC [11, 23]: 2 µg/mL (≈ 5.61 µM); MIC [12, 24]: 4 µg/mL (≈ 11.2 µM)
